Experimental data published in US9663486B2, “Selectively substituted quinoline compounds” (EISAI R&D MANAGEMENT CO., LTD., priority 2013, dated 2017).
Entries after “also recorded” stand apart in the source; their conditions may differ.

System: IFN-regulated genes
Test: DBA/1 pristane lupus model, IFN-regulated gene expression in whole blood (qPCR, IFN score)
Format: in vivo, mouse
Details: Pristane-induced diseased animals, DBA/1 mice, once-a-day oral dosing
Protocol: FIG. 1A through FIG. 1D show results of treatment with ER-888840 (5-((3R,5S)-3-amino-5-methylpiperidin-1-yl)quinoline-8-carbonitrile) in the DBA/1 pristane model. Figure Legend: Female DBA/1 mice at 10 weeks of age were given an intraperitoneal injection of 0.5 ml pristane or PBS. At 18 weeks of age animals were bled for pre-dosing baseline auto-antibody titers. Once-a-day oral dosing with Vehicle (Veh; 0.5% methyl-cellulose) or 11 mg/kg, 33 mg/kg, or 100 mg/kg of ER-888840 was begun at 18 weeks of age, 8 weeks after pristane injection and continued for 12 weeks of treatment. At the end of the experiment plasma samples were taken and anti-dsDNA and anti-histone (FIG. 1A) and anti-Sm/RNP and anti-RiboP (FIG. 1B) titers were determined by ELISA. (FIG. 1C) The expression of IFN-regulated genes in whole blood was measured by a qPCR panel after 8 weeks of treatment. […] (FIG. 1D) The interferon scores of individual mice were calculated (see Pharmacology Materials and Methods section for details regarding IFN score calculation) and groups compared using the Mann-Whitney t test.
FIG. 2A through 2E show results of treatment with ER-888840 in the DBA/1 pristane model. […] At the end of the experiment plasma was taken and anti-dsDNA (FIG. 2A), anti-RiboP (FIG. 2B), anti-histone (FIG. 2C) and anti-Sm/RNP (FIG. 2D) titers were determined by ELISA. […]

## C[C@H]1C[C@@H](N)CN(c2ccc(C#N)c3ncccc23)C1 [ER-888840, 5-((3R,5S)-3-amino-5-methylpiperidin-1-yl)quinoline-8-carbonitrile]
  effect on interferon-regulated gene expression (interferon score): dose-dependently significantly reduced interferon-regulated gene expression; also recorded: suppressed the upregulation of interferon-driven genes
